In publication PMC8550792, “Evolution of kinase polypharmacology across HSP90 drug discovery” (Cell Chemical Biology, 2021):

How the values were obtained:
Test in all cases: biochemical
Type in all cases: biochemical
382 unique human kinases [1] = biological target: T1, 382 unique human kinases (Homo sapiens, UniProt O15264); details: P38d/MAPK13, 10 uM; for remaining activity at 10 µM: read-out: % Enzyme Activity (relative to DMSO controls)
T1 construct: purchased Reaction Biology (HotSpot contract assay)
T1 sequence (O15264 1-365): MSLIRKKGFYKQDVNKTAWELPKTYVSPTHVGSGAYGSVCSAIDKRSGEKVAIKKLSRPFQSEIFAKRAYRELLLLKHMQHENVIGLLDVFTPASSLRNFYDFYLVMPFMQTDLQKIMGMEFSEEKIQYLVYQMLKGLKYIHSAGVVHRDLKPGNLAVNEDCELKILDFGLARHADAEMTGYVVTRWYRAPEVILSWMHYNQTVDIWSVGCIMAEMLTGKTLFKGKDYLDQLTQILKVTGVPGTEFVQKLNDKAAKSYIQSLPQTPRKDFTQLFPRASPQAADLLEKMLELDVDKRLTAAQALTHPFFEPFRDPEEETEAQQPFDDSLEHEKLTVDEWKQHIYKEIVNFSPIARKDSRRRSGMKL

382 unique human kinases [2] = biological target: T2, 382 unique human kinases (Homo sapiens, UniProt P06213); details: kinase IR, compound 10 uM; for remaining activity at 10 µM: read-out: % Enzyme Activity (relative to DMSO controls)
T2 construct: purchased Reaction Biology (HotSpot contract assay)

382 unique human kinases [3] = biological target: T3, 382 unique human kinases (Homo sapiens, UniProt P22455, V550M); details: FGFR4 (V550M), 10 uM; for remaining activity at 10 µM: read-out: % Enzyme Activity (relative to DMSO controls)
T3 construct: purchased Reaction Biology (HotSpot contract assay)

382 unique human kinases [4] = biological target: T4, 382 unique human kinases (Homo sapiens, UniProt Q13164); details: kinase ERK5/MAPK7, compound 10 uM; for remaining activity at 10 µM: read-out: % Enzyme Activity (relative to DMSO controls)
T4 construct: purchased Reaction Biology (HotSpot contract assay)

382 unique human kinases [5] = biological target: T5, 382 unique human kinases (Homo sapiens, UniProt Q96GD4); details: kinase Aurora B, compound 10 uM; for remaining activity at 10 µM: read-out: % Enzyme Activity (relative to DMSO controls)
T5 construct: purchased Reaction Biology (HotSpot contract assay)

382 unique human kinases [6] = biological target: T6, 382 unique human kinases (Homo sapiens, UniProt P11362); details: FGFR1, [ATP] 5 µM, compound 10 uM; for remaining activity at 10 µM: read-out: % Enzyme Activity (relative to DMSO controls)
T6 construct: purchased Reaction Biology (HotSpot contract assay)

382 unique human kinases [7] = biological target: T7, 382 unique human kinases (Homo sapiens, UniProt P21709); details: EPHA1, [ATP] 20 µM, compound 10 uM; for remaining activity at 10 µM: read-out: % Enzyme Activity (relative to DMSO controls)
T7 construct: purchased Reaction Biology (HotSpot contract assay)
T7 sequence (P21709 26-976): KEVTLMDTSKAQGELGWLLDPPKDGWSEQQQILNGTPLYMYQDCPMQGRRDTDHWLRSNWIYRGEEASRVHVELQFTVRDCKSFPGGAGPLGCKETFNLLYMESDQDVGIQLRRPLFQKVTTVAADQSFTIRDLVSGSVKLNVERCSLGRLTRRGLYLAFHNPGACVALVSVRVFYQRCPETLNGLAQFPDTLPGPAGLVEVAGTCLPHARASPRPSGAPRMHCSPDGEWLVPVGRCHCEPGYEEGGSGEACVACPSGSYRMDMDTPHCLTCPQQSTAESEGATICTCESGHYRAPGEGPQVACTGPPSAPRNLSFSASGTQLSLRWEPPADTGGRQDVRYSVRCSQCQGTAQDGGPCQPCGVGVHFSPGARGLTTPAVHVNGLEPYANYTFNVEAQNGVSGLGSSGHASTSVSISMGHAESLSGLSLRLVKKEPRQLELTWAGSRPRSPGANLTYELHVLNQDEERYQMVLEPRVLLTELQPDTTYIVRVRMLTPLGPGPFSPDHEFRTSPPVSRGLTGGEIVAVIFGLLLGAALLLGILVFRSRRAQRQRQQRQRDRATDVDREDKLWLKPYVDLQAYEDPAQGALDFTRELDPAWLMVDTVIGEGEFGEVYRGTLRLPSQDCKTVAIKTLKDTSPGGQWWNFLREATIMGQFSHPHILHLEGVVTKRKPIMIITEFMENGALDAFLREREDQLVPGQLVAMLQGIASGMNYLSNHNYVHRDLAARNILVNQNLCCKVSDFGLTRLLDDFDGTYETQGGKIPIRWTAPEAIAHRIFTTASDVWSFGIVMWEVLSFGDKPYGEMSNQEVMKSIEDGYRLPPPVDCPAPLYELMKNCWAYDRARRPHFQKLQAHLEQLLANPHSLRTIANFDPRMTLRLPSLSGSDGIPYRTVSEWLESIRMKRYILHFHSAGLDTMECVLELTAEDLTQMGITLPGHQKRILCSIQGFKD

382 unique human kinases [8] = biological target: T8, 382 unique human kinases (Homo sapiens, UniProt P41743); details: PKCiota, 10 uM; for remaining activity at 10 µM: read-out: % Enzyme Activity (relative to DMSO controls)
T8 construct: purchased Reaction Biology (HotSpot contract assay)
T8 sequence (P41743 1-596): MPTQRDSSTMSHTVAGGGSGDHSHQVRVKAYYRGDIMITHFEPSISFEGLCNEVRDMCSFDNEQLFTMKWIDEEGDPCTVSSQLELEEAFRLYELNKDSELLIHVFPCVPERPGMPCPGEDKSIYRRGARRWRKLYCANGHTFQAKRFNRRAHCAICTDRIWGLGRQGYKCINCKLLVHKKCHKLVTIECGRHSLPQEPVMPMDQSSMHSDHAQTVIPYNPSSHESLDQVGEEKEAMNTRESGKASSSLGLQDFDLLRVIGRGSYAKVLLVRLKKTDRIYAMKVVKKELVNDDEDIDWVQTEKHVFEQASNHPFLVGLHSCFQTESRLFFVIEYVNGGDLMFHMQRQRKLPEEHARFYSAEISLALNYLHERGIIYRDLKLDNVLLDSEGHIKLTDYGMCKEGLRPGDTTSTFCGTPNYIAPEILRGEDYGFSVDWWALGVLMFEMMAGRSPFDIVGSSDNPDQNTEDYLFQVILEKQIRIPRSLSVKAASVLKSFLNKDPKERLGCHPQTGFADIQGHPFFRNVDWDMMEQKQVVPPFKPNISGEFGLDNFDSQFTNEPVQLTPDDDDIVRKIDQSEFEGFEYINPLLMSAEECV

382 unique human kinases [9] = biological target: T9, 382 unique human kinases (Homo sapiens, UniProt P51957); details: NEK4, 10 uM; for remaining activity at 10 µM: read-out: % Enzyme Activity (relative to DMSO controls)
T9 construct: purchased Reaction Biology (HotSpot contract assay)

382 unique human kinases [10] = biological target: T10, 382 unique human kinases (Homo sapiens, UniProt Q14680, T460M); details: MELK (T460M), [ATP] 20 µM, compound 10 uM; for remaining activity at 10 µM: read-out: % Enzyme Activity (relative to DMSO controls)
T10 construct: purchased Reaction Biology (HotSpot contract assay)

382 unique human kinases [11] = biological target: T11, 382 unique human kinases (Homo sapiens, UniProt Q16539, T106M); details: P38a (T106M), 10 uM; for remaining activity at 10 µM: read-out: % Enzyme Activity (relative to DMSO controls)
T11 construct: purchased Reaction Biology (HotSpot contract assay)
T11 sequence (Q16539 whole entry T106M): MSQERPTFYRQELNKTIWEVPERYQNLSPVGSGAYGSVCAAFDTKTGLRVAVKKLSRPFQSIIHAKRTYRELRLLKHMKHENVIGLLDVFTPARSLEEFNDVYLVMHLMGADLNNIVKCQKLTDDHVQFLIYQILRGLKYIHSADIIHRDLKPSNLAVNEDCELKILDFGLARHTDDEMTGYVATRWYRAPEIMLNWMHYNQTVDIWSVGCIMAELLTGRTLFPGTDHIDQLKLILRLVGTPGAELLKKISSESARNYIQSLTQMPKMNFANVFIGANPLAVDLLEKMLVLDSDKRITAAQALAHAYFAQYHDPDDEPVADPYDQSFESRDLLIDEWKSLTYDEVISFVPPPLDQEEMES

T3 sequence (P22455 22-802 V550M): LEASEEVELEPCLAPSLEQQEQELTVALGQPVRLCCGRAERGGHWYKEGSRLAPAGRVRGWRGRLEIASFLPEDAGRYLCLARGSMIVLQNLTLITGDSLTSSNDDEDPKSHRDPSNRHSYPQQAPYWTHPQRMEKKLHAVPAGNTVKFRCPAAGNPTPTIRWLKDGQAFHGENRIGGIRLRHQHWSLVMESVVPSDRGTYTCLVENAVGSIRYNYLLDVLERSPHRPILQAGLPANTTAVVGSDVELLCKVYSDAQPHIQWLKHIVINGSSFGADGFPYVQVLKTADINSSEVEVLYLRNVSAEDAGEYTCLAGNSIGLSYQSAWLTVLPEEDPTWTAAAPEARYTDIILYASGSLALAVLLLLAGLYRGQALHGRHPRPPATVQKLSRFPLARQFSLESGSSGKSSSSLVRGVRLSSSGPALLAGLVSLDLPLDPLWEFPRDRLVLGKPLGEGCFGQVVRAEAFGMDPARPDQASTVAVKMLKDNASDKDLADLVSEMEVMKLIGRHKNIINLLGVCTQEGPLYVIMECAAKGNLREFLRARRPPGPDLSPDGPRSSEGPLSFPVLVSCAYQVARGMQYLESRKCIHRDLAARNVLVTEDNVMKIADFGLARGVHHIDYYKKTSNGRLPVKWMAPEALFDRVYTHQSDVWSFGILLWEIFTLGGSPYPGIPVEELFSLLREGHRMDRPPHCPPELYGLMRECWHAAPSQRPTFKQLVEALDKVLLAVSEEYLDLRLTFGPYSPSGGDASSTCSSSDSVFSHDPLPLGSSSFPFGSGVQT
T10 sequence (Q14680 whole entry T460M): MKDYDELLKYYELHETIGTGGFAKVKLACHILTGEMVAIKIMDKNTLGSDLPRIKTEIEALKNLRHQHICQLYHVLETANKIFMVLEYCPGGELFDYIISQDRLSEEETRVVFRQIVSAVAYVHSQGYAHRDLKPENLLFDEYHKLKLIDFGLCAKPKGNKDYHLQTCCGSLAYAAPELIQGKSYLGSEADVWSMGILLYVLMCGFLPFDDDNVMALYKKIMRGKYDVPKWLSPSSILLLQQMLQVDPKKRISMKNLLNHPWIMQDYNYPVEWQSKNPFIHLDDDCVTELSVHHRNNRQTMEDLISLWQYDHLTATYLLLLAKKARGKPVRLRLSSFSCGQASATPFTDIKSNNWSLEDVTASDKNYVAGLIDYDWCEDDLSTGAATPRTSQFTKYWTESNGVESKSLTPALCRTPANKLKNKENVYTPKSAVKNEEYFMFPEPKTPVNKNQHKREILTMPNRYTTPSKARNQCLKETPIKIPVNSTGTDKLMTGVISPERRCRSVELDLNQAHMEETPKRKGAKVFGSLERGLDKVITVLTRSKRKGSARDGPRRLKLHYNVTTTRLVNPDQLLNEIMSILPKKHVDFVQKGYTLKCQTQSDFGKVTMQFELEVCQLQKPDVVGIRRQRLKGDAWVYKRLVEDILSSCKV
T6 sequence (P11362 22-822): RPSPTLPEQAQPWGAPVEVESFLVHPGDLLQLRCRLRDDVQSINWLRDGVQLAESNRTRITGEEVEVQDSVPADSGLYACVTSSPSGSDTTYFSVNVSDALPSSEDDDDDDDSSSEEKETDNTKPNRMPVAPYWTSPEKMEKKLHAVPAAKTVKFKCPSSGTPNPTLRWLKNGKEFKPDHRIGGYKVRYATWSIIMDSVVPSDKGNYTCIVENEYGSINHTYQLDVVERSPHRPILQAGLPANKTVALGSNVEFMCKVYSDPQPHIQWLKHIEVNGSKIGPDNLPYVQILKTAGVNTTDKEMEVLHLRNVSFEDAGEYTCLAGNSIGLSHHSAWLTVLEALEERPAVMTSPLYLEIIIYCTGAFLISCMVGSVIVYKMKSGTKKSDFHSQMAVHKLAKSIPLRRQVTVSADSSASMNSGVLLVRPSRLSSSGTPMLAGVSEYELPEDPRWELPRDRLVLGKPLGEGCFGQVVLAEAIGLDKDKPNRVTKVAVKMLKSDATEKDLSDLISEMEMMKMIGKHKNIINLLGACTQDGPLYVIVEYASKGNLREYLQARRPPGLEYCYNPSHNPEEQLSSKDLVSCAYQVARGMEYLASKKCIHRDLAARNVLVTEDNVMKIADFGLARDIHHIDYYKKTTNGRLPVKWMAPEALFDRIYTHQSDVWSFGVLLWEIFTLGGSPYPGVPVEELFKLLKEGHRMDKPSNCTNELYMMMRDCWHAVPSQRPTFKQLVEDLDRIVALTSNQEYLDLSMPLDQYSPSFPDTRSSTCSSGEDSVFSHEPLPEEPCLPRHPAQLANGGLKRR
T9 sequence (P51957 whole entry): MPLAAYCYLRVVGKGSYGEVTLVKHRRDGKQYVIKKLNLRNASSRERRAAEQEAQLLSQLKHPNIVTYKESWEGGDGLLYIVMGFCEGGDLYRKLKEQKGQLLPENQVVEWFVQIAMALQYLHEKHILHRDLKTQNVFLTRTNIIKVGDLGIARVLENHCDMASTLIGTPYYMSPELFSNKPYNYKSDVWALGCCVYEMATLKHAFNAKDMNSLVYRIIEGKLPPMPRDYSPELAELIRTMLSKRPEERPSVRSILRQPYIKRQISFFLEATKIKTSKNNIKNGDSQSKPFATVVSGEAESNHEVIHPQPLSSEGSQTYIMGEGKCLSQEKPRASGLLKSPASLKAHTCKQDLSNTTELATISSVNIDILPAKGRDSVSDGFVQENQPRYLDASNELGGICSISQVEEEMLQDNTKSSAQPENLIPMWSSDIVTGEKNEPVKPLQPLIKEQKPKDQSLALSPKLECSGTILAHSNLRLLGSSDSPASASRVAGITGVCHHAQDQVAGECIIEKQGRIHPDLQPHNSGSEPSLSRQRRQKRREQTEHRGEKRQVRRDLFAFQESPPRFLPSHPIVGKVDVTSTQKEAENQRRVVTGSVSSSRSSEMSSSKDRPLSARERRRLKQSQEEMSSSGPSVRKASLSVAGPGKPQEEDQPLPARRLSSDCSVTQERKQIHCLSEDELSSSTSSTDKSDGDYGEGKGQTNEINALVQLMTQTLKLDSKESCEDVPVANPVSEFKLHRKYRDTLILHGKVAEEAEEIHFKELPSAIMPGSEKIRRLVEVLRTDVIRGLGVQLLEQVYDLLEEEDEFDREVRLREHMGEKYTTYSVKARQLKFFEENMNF
T4 sequence (Q13164 whole entry): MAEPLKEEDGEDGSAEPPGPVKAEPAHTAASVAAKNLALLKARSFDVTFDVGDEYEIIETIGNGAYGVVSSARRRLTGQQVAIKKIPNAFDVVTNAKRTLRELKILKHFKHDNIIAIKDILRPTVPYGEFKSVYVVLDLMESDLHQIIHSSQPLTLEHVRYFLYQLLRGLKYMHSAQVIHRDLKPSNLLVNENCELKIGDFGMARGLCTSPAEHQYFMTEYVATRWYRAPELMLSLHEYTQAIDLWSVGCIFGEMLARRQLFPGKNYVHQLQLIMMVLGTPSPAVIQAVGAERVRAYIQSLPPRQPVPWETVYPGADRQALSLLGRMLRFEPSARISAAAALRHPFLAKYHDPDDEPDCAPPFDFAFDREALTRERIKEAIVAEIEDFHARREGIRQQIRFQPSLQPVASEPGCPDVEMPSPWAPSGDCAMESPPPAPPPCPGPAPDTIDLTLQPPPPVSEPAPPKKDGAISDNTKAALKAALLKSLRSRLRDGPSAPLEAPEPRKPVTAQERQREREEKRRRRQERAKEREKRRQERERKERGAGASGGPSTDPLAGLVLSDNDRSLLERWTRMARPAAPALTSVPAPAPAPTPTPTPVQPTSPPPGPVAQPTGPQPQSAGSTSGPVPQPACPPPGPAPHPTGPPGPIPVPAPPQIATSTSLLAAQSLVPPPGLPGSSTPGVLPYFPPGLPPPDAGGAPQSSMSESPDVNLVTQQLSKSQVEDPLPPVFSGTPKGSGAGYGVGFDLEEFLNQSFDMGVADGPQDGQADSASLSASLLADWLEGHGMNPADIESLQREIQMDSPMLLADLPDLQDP
T5 sequence (Q96GD4 whole entry): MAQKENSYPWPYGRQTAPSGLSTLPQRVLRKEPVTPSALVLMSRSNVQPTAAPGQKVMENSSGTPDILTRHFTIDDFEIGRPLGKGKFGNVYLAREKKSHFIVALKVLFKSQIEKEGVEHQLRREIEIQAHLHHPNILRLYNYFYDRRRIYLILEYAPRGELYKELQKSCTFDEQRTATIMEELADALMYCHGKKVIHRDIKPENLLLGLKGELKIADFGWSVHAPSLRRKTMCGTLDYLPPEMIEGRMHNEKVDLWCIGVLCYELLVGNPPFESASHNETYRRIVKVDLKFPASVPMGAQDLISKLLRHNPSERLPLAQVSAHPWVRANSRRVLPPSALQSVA

CC(C)c1cc(-c2n[nH]c(=O)n2-c2ccc3c(ccn3C)c2)c(O)cc1O [Ganetespib (STA9090)]
remaining activity at 10 µM (382 unique human kinases [1]): 83.5% | remaining activity at 10 µM (382 unique human kinases [2]): 87% | remaining activity at 10 µM (382 unique human kinases [3]): 85.2% | remaining activity at 10 µM (382 unique human kinases [4]): 91.3% | remaining activity at 10 µM (382 unique human kinases [5]): 83.6%

CC(C)c1cc(-c2n[nH]c(=O)n2-c2ccc3c(ccn3C)c2)c(O)cc1O [Ganetespib]
remaining activity at 10 µM (382 unique human kinases [6]): 58.5% | remaining activity at 10 µM (382 unique human kinases [7]): 60.7% | remaining activity at 10 µM (382 unique human kinases [8]): 94.9% | remaining activity at 10 µM (382 unique human kinases [9]): 95.1% | remaining activity at 10 µM (382 unique human kinases [10]): 43.6% | remaining activity at 10 µM (382 unique human kinases [11]): 95.8%

CCNC(=O)c1noc(-c2cc(C(C)C)c(O)cc2O)c1-c1ccc(CN2CCOCC2)cc1 [Luminespib (AUY-922)]
% Enzyme Activity (relative to DMSO controls) (382 unique human kinases [1]): 86.84% | remaining activity at 10 µM (382 unique human kinases [1]): 86.8% | % Enzyme Activity (relative to DMSO controls) (382 unique human kinases [2]): 96.77% | remaining activity at 10 µM (382 unique human kinases [2]): 96.8% | % Enzyme Activity (relative to DMSO controls) (382 unique human kinases [3]): 64.75% | remaining activity at 10 µM (382 unique human kinases [3]): 72.2% | % Enzyme Activity (relative to DMSO controls) (382 unique human kinases [4]): 86.48% | remaining activity at 10 µM (382 unique human kinases [4]): 86.6% | % Enzyme Activity (relative to DMSO controls) (382 unique human kinases [5]): 100.09% | remaining activity at 10 µM (382 unique human kinases [5]): 104%

CCNC(=O)c1noc(-c2cc(C(C)C)c(O)cc2O)c1-c1ccc(CN2CCOCC2)cc1 [Luminespib]
% Enzyme Activity (relative to DMSO controls) (382 unique human kinases [6]): 97.95% | remaining activity at 10 µM (382 unique human kinases [6]): 102% | % Enzyme Activity (relative to DMSO controls) (382 unique human kinases [7]): 101.19% | remaining activity at 10 µM (382 unique human kinases [7]): 102% | % Enzyme Activity (relative to DMSO controls) (382 unique human kinases [8]): 94.98% | remaining activity at 10 µM (382 unique human kinases [8]): 96% | % Enzyme Activity (relative to DMSO controls) (382 unique human kinases [9]): 95.18% | remaining activity at 10 µM (382 unique human kinases [9]): 95.4% | % Enzyme Activity (relative to DMSO controls) (382 unique human kinases [10]): 72.49% | remaining activity at 10 µM (382 unique human kinases [10]): 74.9% | % Enzyme Activity (relative to DMSO controls) (382 unique human kinases [11]): 98.91% | remaining activity at 10 µM (382 unique human kinases [11]): 99.8%
